# Test results taken from ChEMBL document CHEMBL3046207, “Synthesis of a new series of 2-(2-oxo-2H-chromen-3-yl)-5H-chromeno[4,3-b]pyridin-5-ones by two facile methods and evaluation of their antimicrobial activity” (2013).
# Assays:
# Escherichia coli = assay: Antibacterial activity against Escherichia coli MTCC 443 by broth dilution method; format: functional
# Staphylococcus aureus = assay: Antibacterial activity against Staphylococcus aureus MTCC 96 by broth dilution method; format: functional
# Salmonella typhimurium = assay: Antibacterial activity against Salmonella enterica typhimurium MTCC 98 by broth dilution method; format: functional, Salmonella enterica subsp. enterica serovar Typhimurium
# Candida albicans = assay: Antifungal activity against Candida albicans MTCC 227 by broth dilution method; format: functional
# Bacillus subtilis = assay: Antibacterial activity against Bacillus subtilis MTCC 441 by broth dilution method; format: functional
# Aspergillus niger = assay: Antifungal activity against Aspergillus niger MTCC 282 by broth dilution method; format: functional
Compound,MIC (Escherichia coli),MIC (Staphylococcus aureus),MIC (Salmonella typhimurium),MIC (Candida albicans),MIC (Bacillus subtilis),MIC (Aspergillus niger)
COc1cccc2cc(-c3ccc4c(=O)oc5ccc(C)cc5c4n3)c(=O)oc12,250 µg/mL,100 µg/mL,200 µg/mL,1000 µg/mL,62.5 µg/mL,500 µg/mL
Cc1cccc2c1oc(=O)c1ccc(-c3cc4c(ccc5ccccc54)oc3=O)nc12,62.5 µg/mL,100 µg/mL,100 µg/mL,1000 µg/mL,125 µg/mL,> 1000 µg/mL
COc1cccc2cc(-c3ccc4c(=O)oc5ccc(Cl)cc5c4n3)c(=O)oc12,200 µg/mL,200 µg/mL,250 µg/mL,> 1000 µg/mL,62.5 µg/mL,500 µg/mL
Cc1ccc2oc(=O)c3ccc(-c4cc5ccccc5oc4=O)nc3c2c1,125 µg/mL,250 µg/mL,125 µg/mL,500 µg/mL,200 µg/mL,> 1000 µg/mL
O=c1oc2ccccc2cc1-c1ccc2c(=O)oc3ccccc3c2n1,125 µg/mL,200 µg/mL,200 µg/mL,1000 µg/mL,250 µg/mL,500 µg/mL
Cc1cccc2c1oc(=O)c1ccc(-c3cc4ccccc4oc3=O)nc12,200 µg/mL,200 µg/mL,250 µg/mL,500 µg/mL,250 µg/mL,> 1000 µg/mL
COc1cccc2cc(-c3ccc4c(=O)oc5ccccc5c4n3)c(=O)oc12,200 µg/mL,100 µg/mL,250 µg/mL,1000 µg/mL,200 µg/mL,1000 µg/mL
COc1cccc2cc(-c3ccc4c(=O)oc5c(C)cccc5c4n3)c(=O)oc12,250 µg/mL,250 µg/mL,250 µg/mL,200 µg/mL,125 µg/mL,> 1000 µg/mL
COC1=CC(=O)C[C@@H](C)[C@]12Oc1c(Cl)c(OC)cc(OC)c1C2=O [GRISEOFULVIN],,,,500 µg/mL,,100 µg/mL
O=c1oc2ccc3ccccc3c2cc1-c1ccc2c(=O)oc3ccccc3c2n1,250 µg/mL,100 µg/mL,200 µg/mL,250 µg/mL,125 µg/mL,> 1000 µg/mL
O=c1oc2ccccc2cc1-c1ccc2c(=O)oc3ccc(Cl)cc3c2n1,125 µg/mL,125 µg/mL,100 µg/mL,> 1000 µg/mL,200 µg/mL,> 1000 µg/mL
NYSTATIN,,,,100 µg/mL,,100 µg/mL
O=c1oc2ccc3ccccc3c2cc1-c1ccc2c(=O)oc3ccc(Cl)cc3c2n1,62.5 µg/mL,62.5 µg/mL,100 µg/mL,500 µg/mL,200 µg/mL,1000 µg/mL
Cc1ccc2oc(=O)c3ccc(-c4cc5c(ccc6ccccc65)oc4=O)nc3c2c1,250 µg/mL,62.5 µg/mL,250 µg/mL,1000 µg/mL,200 µg/mL,500 µg/mL
CCn1cc(C(=O)O)c(=O)c2cc(F)c(N3CCNCC3)cc21 [NORFLOXACIN],10 µg/mL,10 µg/mL,10 µg/mL,,100 µg/mL,
CC1(C)S[C@@H]2[C@H](NC(=O)[C@H](N)c3ccccc3)C(=O)N2[C@H]1C(=O)O [AMPICILLIN],100 µg/mL,250 µg/mL,100 µg/mL,,250 µg/mL,
